# According to patent publication EP0672421B1, “ENDOTHELIN ACTIVITY INHIBITOR” (Kurashiki Boseki Kabushiki Kaisha, priority 1993, dated 2002):
# Positions of bridges follow the written chain, without caps; N, C: chain ends. No end group written: not given here.
# System: 3T3 cells
# Assay: Increase of intracellular calcium ion concentration by addition of endothelin
# Type: cell-based
# Details: mouse 3T3 cells; endothelin-1 0.01 to 100 ng/ml; relative fluorescence intensity; Figure 4
# Description: It is known that addition of endothelin into culture cell causes the elevation of intracellular Ca^2+ concentration.
# Commercially available 3T3 cells (ATCC No.CCL92) cultured in a flask according to the standard method were used in the experiments. The cells adhered to a inner wall of the flask were harvested by trypsinization treatment, washed three times with Ca^2+-free phosphate buffered saline (PBS) and suspended into 200 µl of the Ca^2+-free PBS. Into the cell suspension, a fluorescent indicator of Ca^2+, FLUO-3AM (Wako chemicals: 1 mM in DMSO solution), was added at a final concentration of 1 µM. The cells were incubated at 37°C for 10 minutes to allow them to uptake the indicator. […]
# The increase in relative fluorescence intensity caused by Ca^2+ influx was measured with FACScan of Becton, Dickinson & Co.. In the measurement, a base line was determined over 20 seconds, then a test substance (for example endothelin) was added into the sample and followed the time course of the relative fluorescence intensity for about 80 seconds.
# Into each aliquots of the above cell suspension, endothelin-1 was added at a final concentration of 0.01 to 100 ng/ml to observe the changes in the relative fluorescence intensity.
substance,measurement,value
"endothelin-1 (CSCSSLMDKECVYFCHLDIIW; disulfide 1-15, 3-11; ends not checked; UniProt P05305 53-73, looked up)",increase of intracellular calcium ion concentration,increase of the intracellular calcium ion concentration occurs in proportion to the concentration of endothelin
